Several values for one entry are separate records, joined by “and”; a condition that tells them apart may be missing. Equal values may be shown once. Read-outs that look alike come from different tables or passages of the source.
How the values were obtained:
HIV-1 RT [1] = experiment: Amp-RT assay, AZT-TP and other NRTI-TPs, reference viruses; type: biochemical
HIV-1 RT [2] = system: HIV-1 RT
Experimental: (§1) For culture supernatant, 10 μl were used directly in the Amp-RT assay. For plasma testing, a volume of 100 μl was clarified by centrifugation at 10,000 g for five minutes and then ultracentrifuged at a fixed angle at 99,000 g for 1 hour at 4° C. The viral pellet was resuspended in 100 μl of RT buffer (50 mM Tris-HCl, 50 mM KCl, 10 mM MgCl2). Ten microliter aliquots of virus pellets were applied to an RT buffer containing 10 ng of EMCV RNA template, 10 units of RNasin, 0.6% NP-40, 100 ng of the 5′-biotin-labeled EMCR2 antisense primer, 1 nM EGTA, 2 mM dithiothreitol, 50 mM Tris-HCl, 50 mM KCl, 10 mM MgCl2, and 400 uM of each dNTP. Reactions were incubated at 37° C. for 2 hours and then heated at 95° C. for five minutes to destroy RT activity. […] The conditions for PCR were 35 cycles at 95° C. for one minute, 55° C. for one minute, and 72° C. for one minute.
(§2) For quantitation of RT levels, a standard curve was generated by using known RT units from a reference HIV-1 stock (Virology Quality Assurance Laboratory, Rush-Presbyterian-St. Luke's Medical Center, Chicago, Ill.). […] All samples were tested within the linear range of the Amp-RT assay (from 10^−6 to 10^−10 units of RT activity). Samples which had levels of RT activity above the linear range of the assay, were further diluted in RT buffer and retested again. The minimum detectable level of HIV-1 RT activity by the Amp-RT in plasma is 10^−10 units, the equivalent of 1 HIV-1 particle of the reference virus used for quantitation. The results of Amp-RT signals were expressed as units of RT activity per milliliter of plasma and reflect the average of duplicate results.

HIV-1 RT [3] = target: HIV-1 RT (Human immunodeficiency virus type 1 group M subtype B, UniProt P04585, M628L/L661V/V693A/T802Y); settings: 50 μM; HIV-1RTMDR1/MT-2 (74V/41L/106A/215Y)
Experimental: as §1, §2

plasma HIV-1 RT = plasma HIV-1 RT (Human immunodeficiency virus type 1, UniProt P04585); settings: 50 μM nevirapine
Experimental: as §1, §2

HIV-1 isolates = settings: read-out: IC50 Culture, cited from earlier work
[4] = MNR HIV-1SUM12 (F77L, F116Y, Q151M)
[5] = MNR HIV-1SUM13 (A62V, V75I, F77L, F116Y, Q151M)

## Cc1cn([C@H]2C=C[C@@H](COP(=O)(O)OP(=O)(O)OP(=O)(O)O)O2)c(=O)[nH]c1=O [d4T-TP]
HIV-1 RT [1]; MNR HIV-1SUM8 (Q151M)
  IC50: 320 nM
  fold resistance (IC50) as compared to the mean IC values of WT HIV-1: (9.1) fold
HIV-1 RT [1]; [4]
  IC50: 370 nM
  fold resistance (IC50) as compared to the mean IC values of WT HIV-1: (10.6) fold
HIV-1 RT [1]; [5]
  IC50: 370 nM
  fold resistance (IC50) as compared to the mean IC values of WT HIV-1: (10.6) fold
HIV-1 RT [1]; WT HIV-1LAI
  IC50: 15 nM
HIV-1 RT [1]; WT HIV-1SUM9
  IC50: 55 nM

## Nc1ncnc2c1ncn2[C@H]1CC[C@@H](COP(=O)(O)OP(=O)(O)OP(=O)(O)O)O1 [ddA-TP]
HIV-1 RT [1]; MNR HIV-1SUM8 (Q151M)
  IC50: 1200 nM
  fold resistance (IC50) as compared to the mean IC values of WT HIV-1: (6.5) fold
HIV-1 RT [1]; [4]
  IC50: 1100 nM
  fold resistance (IC50) as compared to the mean IC values of WT HIV-1: (5.9) fold
HIV-1 RT [1]; [5]
  IC50: 6000 nM
  fold resistance (IC50) as compared to the mean IC values of WT HIV-1: (32.4) fold
HIV-1 RT [1]; WT HIV-1SUM9
  IC50: 270 nM
HIV-1 RT [1]; WT HIV-1xxBRUpitt
  IC50: 100 nM

## Nc1ccn([C@H]2CC[C@@H](COP(=O)(O)OP(=O)(O)OP(=O)(O)O)O2)c(=O)n1 [ddC-TP, ddC-triphosphate]
HIV-1 RT [1]; MNR HIV-1SUM8 (Q151M)
  IC50: 1800 nM
  fold resistance (IC50) as compared to the mean IC values of WT HIV-1: (3.6) fold
HIV-1 RT [1]; [4]
  IC50: 6000 nM
  fold resistance (IC50) as compared to the mean IC values of WT HIV-1: (12) fold
HIV-1 RT [1]; [5]
  IC50: 7500 nM
  fold resistance (IC50) as compared to the mean IC values of WT HIV-1: (15) fold
HIV-1 RT [1]; WT HIV-1LAI
  IC50: 500 nM
HIV-1 RT [1]; WT HIV-1SUM9
  IC50: 500 nM

## Cc1ccnc2c1NC(=O)c1cccnc1N2C1CC1 [nevirapine]
HIV-1 RT [2]; 50 μM nevirapine, isolate W786-6, 8.3×10^−9 units of RT activity
  inhibition of RT: no significant inhibition
HIV-1 RT [2]; 50 μM nevirapine, isolate W786-6, input 5.6 × 10^−8 units
  Inhibition of RT. (%): 0%
HIV-1 RT [2]; 50 μM nevirapine, isolate X267-1, input 6.9 × 10^−9 units
  Inhibition of RT. (%): complete inhibition and 100%
HIV-1 RT [2]; 50 μM nevirapine, isolate X267-1, input 7.1 × 10^−7 units
  Inhibition of RT. (%): 98.6%
HIV-1 RT [2]; 50 μM nevirapine, isolate X267-1, input 7.1 × 10^−7 units, listed as Nevirapine
  Inhibition of RT. (%): 98.7%
HIV-1 RT [2]; 50 μM nevirapine, isolate X267-1, input 7.2 × 10^−8 units
  Inhibition of RT. (%): complete inhibition and 100%
HIV-1 RT [2]; 50 μM nevirapine, isolate X403-4, input 4.4 × 10^−7 units
  Inhibition of RT. (%): 16%
HIV-1 RT [2]; 50 μM nevirapine, isolates X403-4 and W786-6, high or low input of RT
  inhibition of RT: no significant inhibition
HIV-1 RT [2]; 50 μM nevirapine, line under isolate X403-4, input 4.1 × 10^−7 units
  Inhibition of RT. (%): 0%
HIV-1 RT [2]; 50 μM nevirapine, line under isolate X403-4, input 8.2 × 10^−9 units
  Inhibition of RT. (%): 0%
HIV-1 RT [2]; 50 μM nevirapine, mixture 10% resistant (W786-6) and 90% sensitive (X267-1) viruses
  RT inhibition: 94%
HIV-1 RT [2]; 50 μM nevirapine, mixture containing 25% resistant viruses
  RT inhibition: 80%
HIV-1 RT [2]; 50 μM nevirapine, mixture containing 75% resistant viruses
  RT inhibition: 29%
HIV-1 RT [2]; 50 μM nevirapine, resistant isolates
  inhibition of RT activity: little or no inhibition
HIV-1 RT [2]; 50 μM nevirapine, sensitive isolate X267-1 alone
  RT inhibition: > 99%
HIV-1 RT [2]; 50 μM, HIV-1RTMC/MT-2 (67N/70R/215F/219Q), AZT-resistant
  Inhibition of RT by Nevirapine: 91.8%
HIV-1 RT [2]; 50 μM, HIV-1RTMDR1/MT-2 (74V/41L/106A/215Y)
  Inhibition of RT by Nevirapine: 43%
HIV-1 RT [2]; 50 μM, L6KL5 (103N/75I/77L/116Y/151M)
  Inhibition of RT by Nevirapine: 7%
HIV-1 RT [2]; 50 μM, L6KL5 (103N/75I/77L/116Y/151M), listed as Nevirapine
  Inhibition of RT by Nevirapine: 0%
HIV-1 RT [2]; 50 μM, M184V/Y181CEU (184V/181C)
  Inhibition of RT by Nevirapine: 0%
HIV-1 RT [2]; 50 μM, M184Vpitt (184V), 3TC-resistant
  Inhibition of RT by Nevirapine: 98.8%
HIV-1 RT [2]; 50 μM, N119 (181C)
  Inhibition of RT by Nevirapine: 0%
HIV-1 RT [2]; 50 μM, N119 (181C), listed as Nevirapine
  Inhibition of RT by Nevirapine: 7%
HIV-1 RT [2]; 50 μM, viruses containing mutations associated with AZT or 3TC resistance
  susceptibility to nevirapine: susceptible
HIV-1 RT [2]; isolate W786-6, 5.6 × 10^−8 without nevirapine
  Units of RT activity With 50 μM Nevirapine: 7.7 × 10^−8 Units of RT activity
HIV-1 RT [2]; isolate X267-1, 7.1 × 10^−7 without nevirapine
  Units of RT activity With 50 μM Nevirapine: 9.1 × 10^−9 Units of RT activity
HIV-1 RT [2]; isolate X403-4, 4.4 × 10^−7 without nevirapine
  Units of RT activity With 50 μM Nevirapine: 3.7 × 10^−7 Units of RT activity
HIV-1 RT [2]; line under isolate X403-4, 4.1 × 10^−7 without nevirapine
  Units of RT activity With 50 μM Nevirapine: 5.0 × 10^−7 Units of RT activity
HIV-1 RT [2]; line under isolate X403-4, 8.2 × 10^−9 without nevirapine
  Units of RT activity With 50 μM Nevirapine: 8.4 × 10^−9 Units of RT activity
HIV-1 RT [3]
  Inhibition of RT by Nevirapine: partially inhibited
Plasma HIV-1 RT; patient N06, after 7 days of treatment
  RT inhibition: 100%
Plasma HIV-1 RT; patient N07, day 7 of treatment
  RT inhibition: 24%
Plasma HIV-1 RT; patient N12, after 7 days of treatment
  RT inhibition: 94%
Plasma HIV-1 RT; patient N12, day 14 of treatment
  RT inhibition: 32%
Plasma HIV-1 RT; samples after more than two weeks of treatment
  mean RT inhibition: 13.82%
Plasma HIV-1 RT; samples collected before therapy (n=7)
  mean RT inhibition: 99.3%
Plasma HIV-1 RT; samples of the first six days of treatment (n=14)
  mean RT inhibition: 98.2%
HIV-1 isolates; isolate S469-2/M3 (Y188L)
  IC50: 100000 nM
HIV-1 isolates; isolate X165-6 (no mutations)
  IC50: 70 nM
HIV-1 isolates; isolate X267-1 (no mutations)
  IC50: 40 nM
